# Like-named read-outs stand apart in the source and are kept apart here.
# Key:
# HIV-1 L100I = assay: Antiviral activity against HIV-1 mutant L100I in MT-4 cells; type: cell-based
# HIV-1 K103N = assay: Antiviral activity against HIV-1 mutant K103N in MT-4 cells; type: cell-based
# HIV-1 Y181C = assay: Antiviral activity against HIV-1 mutant Y181C in MT-4 cells; type: cell-based
# HIV-1 E138K = assay: Antiviral activity against HIV-1 mutant E138K in MT-4 cells; type: cell-based
# HIV-1 Y188L = assay: Antiviral activity against HIV-1 mutant Y188L in MT-4 cells; type: cell-based
# HIV-1 F227L + V106A = assay: microbe, parasite or virus in culture; type: cell-based
# [1] = tested on: HIV-1 K103N + Y181C (RES056); assay: Antiviral activity against HIV-1 double mutant K103N + Y181C (RES056) in MT-4 cells; type: cell-based
# WT HIV-1 RT = WT HIV-1 RT (Human immunodeficiency virus type 1 group M subtype B, UniProt P03366); assay: Inhibition of WT HIV-1 RT polymerase activity
# Procedure: The anti-HIV-1 activity of A1–A24 and B1–B22 at the cellular or enzyme level were evaluated following our previously reported method[15].
# HIV-1 (IIIB) [2] = details: earlier compounds of Fig. 1 / introduction, cited from earlier work; for EC50: WT HIV-1
# MT-4 cells [3] = details: cited from earlier work
# [4] = human liver microsomes; cited from earlier work
# CYP2D6 = target: T1, CYP2D6 (Homo sapiens, UniProt P10635); assay: CYP enzyme inhibition assay, CYP2D6; type: in vitro ADME; details: IC50 CYP2D6, human liver microsomes
# T1 construct: An incubation system of human liver microsomes (20 μL, 1.5 mg/mL); from tissue; host or cells: human liver microsomes
# Procedure: An incubation system of human liver microsomes (20 μL, 1.5 mg/mL), 20 μL probe substrates, and 50 μL test compound in Tris (0.1 mol/L) was pre-incubated at 37 °C for 10 min, and then initiated by adding NADPH (10 μL, 10 mmol/L). The system was incubated for another 15 min and subsequently terminated by 100 μL MeCN containing internal standard (propranolol, nadolol). Finally, the sample was centrifugated to obtain the supernatant for LC‒MS/MS analysis.
# HIV-1 (IIIB) [5] = assay: microbe, parasite or virus in culture; type: cell-based; details: for EC50: mean ± SD, n ≥ 3; for SI (IIIB): selectivity index, ratio CC50/EC50
# Excerpt: (§1) Inspired by our previous research on heteroaromatic-biphenyl-DAPYs[15], the 4-cyanophenyl group on the biphenyl moiety was replaced with a privileged 4-pyridyl group for further evaluation.
# MT-4 cells [6] = assay: in vitro
# Excerpt: as §1
# in vitro = details: human, CC50
# Excerpt: as §1
# [7] = Human immunodeficiency virus 1, MT4, read-out: EC50 L100I
# [8] = Human immunodeficiency virus 1, MT4, read-out: EC50 K103N
# [9] = Human immunodeficiency virus 1, MT4, read-out: EC50 Y181C
# [10] = Human immunodeficiency virus 1, MT4, read-out: EC50 E138K
# [11] = Human immunodeficiency virus 1, MT4, read-out: EC50 Y188L
# [12] = Human immunodeficiency virus 1, MT4, read-out: EC50 F227L + V106A
# [13] = Human immunodeficiency virus 1, MT4, read-out: EC50 K103N + Y181C
# [14] = WT HIV-1, protection of MT-4 cells against HIV-induced cytopathogenicity
# [15] = uninfected MT-4 cells, mean ± SD, n ≥ 3
# [16] = MT-4 cells, mean ± SD, n ≥ 3, read-out: EC50 L100I
# [17] = MT-4 cells, mean ± SD, n ≥ 3, read-out: EC50 K103N
# [18] = MT-4 cells, mean ± SD, n ≥ 3, read-out: EC50 Y181C
# [19] = MT-4 cells, mean ± SD, n ≥ 3, read-out: EC50 E138K
# [20] = MT-4 cells, mean ± SD, n ≥ 3, read-out: EC50 Y188L
# [21] = MT-4 cells, mean ± SD, n ≥ 3, read-out: EC50 F227L + V106A
# [22] = RES056, MT-4 cells, mean ± SD, n ≥ 3, read-out: EC50 K103N + Y181C
# [23] = Human immunodeficiency virus 1, IIIB, MT4, WT HIV-1, protection of MT-4 cells against HIV-induced cytopathogenicity
# T1 sequence (P10635 whole entry): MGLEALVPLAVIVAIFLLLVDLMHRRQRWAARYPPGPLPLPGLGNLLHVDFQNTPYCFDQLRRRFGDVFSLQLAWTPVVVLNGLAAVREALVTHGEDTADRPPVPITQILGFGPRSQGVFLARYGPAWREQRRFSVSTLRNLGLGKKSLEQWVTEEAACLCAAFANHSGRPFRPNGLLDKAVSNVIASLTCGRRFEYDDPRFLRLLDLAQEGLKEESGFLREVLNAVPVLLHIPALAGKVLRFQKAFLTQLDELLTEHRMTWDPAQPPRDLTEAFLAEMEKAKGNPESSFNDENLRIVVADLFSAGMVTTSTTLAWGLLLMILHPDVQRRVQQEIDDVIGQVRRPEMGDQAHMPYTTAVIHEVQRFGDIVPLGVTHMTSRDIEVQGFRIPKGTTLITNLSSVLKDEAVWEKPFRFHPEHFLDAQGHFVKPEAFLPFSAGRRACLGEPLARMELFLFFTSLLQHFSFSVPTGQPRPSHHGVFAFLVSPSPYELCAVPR
SMILES,EC50 (HIV-1 L100I; [7]) [nM],EC50 (HIV-1 K103N; [8]) [nM],EC50 (HIV-1 Y181C; [9]) [nM],EC50 (HIV-1 E138K; [10]) [nM],EC50 (HIV-1 Y188L; [11]) [nM],EC50 (HIV-1 F227L + V106A; [12]) [nM],"EC50 [1, 13] [nM]",IC50 (WT HIV-1 RT) [nM],EC50 (HIV-1 (IIIB) [5]; [14]) [nM],SI (IIIB) (HIV-1 (IIIB) [5]),also measured
"N#Cc1ccc(Nc2ncc(Cl)c(Nc3c(F)cc(-c4ccc(C#N)cc4)cc3F)n2)cc1 [B10, 4′-((5-Chloro-2-((4-cyanophenyl)amino)pyrimidin-4-yl)amino)-3′,5′-difluoro-[1,1′-biphenyl]-4-carbonitrile]",17 ± 8.1,5 ± 2.4,11 ± 1.5,5.7 ± 2.8,187 ± 52,959 ± 327,676 ± 349,31 ± 2.2,,,
"Cc1cc(/C=C/C#N)cc(C)c1Nc1ccnc(Nc2ccc(C#N)cc2)n1 [RPV, rilpivirine]",,,,,,,,,,,EC50 (HIV-1 (IIIB) [2]): 1 nM; CC50 (MT-4 cells [3]; introduction): ~5000 nM; CLint(liver) [4]: 97.6 mL/min/kg; CLint(mic) [4]: 108.4 µL/min/mg; t1/2 [4]: 12.8 min
"COc1ccc2c(c1)[C@]13CCCC[C@@H]1[C@H](C2)N(C)CC3 [Dextromethorphan, reference compound]",,,,,,,,,,,IC50 (CYP2D6): 224 nM
"Cc1cc(-c2ccncc2)cc(C)c1Nc1nc(Nc2ccc(C#N)cc2)ncc1F [A24, 4-((4-((2,6-Dimethyl-4-(pyridin-4-yl)phenyl)amino)-5-fluoropyrimidin-2-yl)amino)benzonitrile]",4.1 ± 3.7,1.9 ± 0.5,9.3 ± 5.6,8.3 ± 5.4,90 ± 27,244 ± 146,63 ± 12,39 ± 2.4,,,
"Cc1ccnc2c1NC(=O)c1cccnc1N2C1CC1 [NVP, reference compound]",,,,,,,,,188 ± 68,,"CC50 (MT-4 cells [6]; [15]): > 15000 nM; EC50 (HIV-1 L100I; [16]): 1800 ± 1430 nM; EC50 (HIV-1 K103N; [17]): 5860 ± 2780 nM; EC50 (HIV-1 Y181C; [18]): 9010 ± 2630 nM; EC50 (HIV-1 E138K; [19]): 143 ± 38 nM; EC50 (HIV-1 Y188L; [20]): > 15000 nM; EC50 (HIV-1 F227L + V106A; [21]): > 15000 nM; EC50 [1, 22]: > 15000 nM"
N#Cc1ccc(Nc2nccc(Nc3c(F)cc(-c4ccc(C#N)cc4)cc3F)n2)cc1 [compound 4],,,,,,,,,,,"EC50 (HIV-1 (IIIB) [2]): 1.3 nM; SI (HIV-1 (IIIB) [2]): > 238,095; CC50 (MT-4 cells [3]; earlier compounds of Fig. 1 / introduction): > 294000 nM"
"Cc1cc(-c2ccc(C#N)cc2)ccc1Nc1nc(Nc2ccc(C#N)cc2)ncc1F [A9, 4′-((2-((4-Cyanophenyl)amino)-5-fluoropyrimidin-4-yl)amino)-3′-methyl-[1,1′-biphenyl]-4-carbonitrile]",17 ± 6.7,7.1 ± 1.9,9.3 ± 0.7,10 ± 1.9,1620 ± 382,37700,24900,36 ± 4.8,,,
"O=C1Nc2ccc(Cl)cc2[C@@](C#CC2CC2)(C(F)(F)F)O1 [EFV, reference compound]",,,,,,,,,3.8 ± 1,>1618,"CC50 (MT-4 cells [6]; [15]): > 6300 nM; EC50 (HIV-1 L100I; [16]): 24 ± 9.5 nM; EC50 (HIV-1 K103N; [17]): 60 ± 19 nM; EC50 (HIV-1 Y181C; [18]): 6.3 ± 2.5 nM; EC50 (HIV-1 E138K; [19]): 5.4 ± 1.6 nM; EC50 (HIV-1 Y188L; [20]): 244 ± 95 nM; EC50 (HIV-1 F227L + V106A; [21]): 181 ± 89 nM; EC50 [1, 22]: 314 ± 146 nM"
"Cc1cc(-c2ccc(C#N)cc2)cc(C)c1Nc1nc(Nc2ccc(C#N)cc2)ncc1Cl [B11, 4′-((5-Chloro-2-((4-cyanophenyl)amino)pyrimidin-4-yl)amino)-3′,5′-dimethyl-[1,1′-biphenyl]-4-carbonitrile]",5.5 ± 1.8,4.4 ± 1.1,9.8 ± 3.3,12 ± 6.9,33 ± 6.7,164 ± 71,102 ± 24,53,5.3 ± 1.8,"47,357",EC50 (HIV-1 (IIIB) [5]; [23]): ≤ 5.3 nM
"N#Cc1ccc(Nc2ncc(F)c(Oc3ccc(-c4ccc(C#N)cc4)cc3F)n2)cc1 [A1, 4′-((2-((4-Cyanophenyl)amino)-5-fluoropyrimidin-4-yl)oxy)-3′-fluoro-[1,1′-biphenyl]-4-carbonitrile]",174 ± 49,52 ± 42,306 ± 117,28 ± 12,> 47000,> 47000,> 47000,54 ± 9.4,4.2 ± 1.4,">10,870",EC50 (HIV-1 (IIIB) [5]; [23]): ≤ 5.3 nM; CC50 (in vitro): > 45000 nM; CC50 (MT-4 cells [6]; human): > 47000 nM

# — PMC12399242 (Acta Pharmaceutica Sinica. B, 2025)
